What follows are compounds tested against T1, Tyrosinase (Agaricus bisporus, UniProt O42713) (assay: Inhibition of mushroom tyrosinase by Lineweaver-Burke double reciprocal plot analysis).
T1 sequence (O42713 whole entry): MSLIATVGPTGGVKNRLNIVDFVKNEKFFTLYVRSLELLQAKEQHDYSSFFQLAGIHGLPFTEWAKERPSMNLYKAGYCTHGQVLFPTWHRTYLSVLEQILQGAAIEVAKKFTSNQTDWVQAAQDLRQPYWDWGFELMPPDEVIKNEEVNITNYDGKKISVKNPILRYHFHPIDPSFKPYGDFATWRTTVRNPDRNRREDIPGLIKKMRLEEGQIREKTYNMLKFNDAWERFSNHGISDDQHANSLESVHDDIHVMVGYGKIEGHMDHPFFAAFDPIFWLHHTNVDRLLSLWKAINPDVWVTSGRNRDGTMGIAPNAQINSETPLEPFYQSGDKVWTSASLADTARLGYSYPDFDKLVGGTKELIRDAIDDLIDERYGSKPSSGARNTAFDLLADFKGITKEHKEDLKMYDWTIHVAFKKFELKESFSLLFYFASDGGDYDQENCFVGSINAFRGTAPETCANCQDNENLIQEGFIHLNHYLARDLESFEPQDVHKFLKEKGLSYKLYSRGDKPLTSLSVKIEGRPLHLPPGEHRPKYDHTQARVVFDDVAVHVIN

Row | Ki [µM] | Structure (SMILES)
1 | 48 | O=Cc1cc(Cc2ccc(O)c(C=O)c2)ccc1O

These compounds were tested against T1, Tyrosinase.
Description: Inhibition of mushroom tyrosinase after 10 mins by L-DOPA oxidation assay

Row | IC50 [µM] | Structure (SMILES)
2 | 74 | O=Cc1cc(Cc2ccc(O)c(C=O)c2)ccc1O
3 | 695 | COc1cc(Cc2cc(C=O)c(O)c(OC)c2)cc(C=O)c1O
4 | 117 | COc1cc(O)c(C=O)cc1Cc1cc(C=O)c(O)cc1OC
5 | 523 | O=Cc1cc(Cc2cc(O)c(O)c(C=O)c2)cc(O)c1O
6 | 76 | O=Cc1cc(Cc2cc(C=O)c(O)cc2O)c(O)cc1O

Reference: ChEMBL document CHEMBL1255174, “Synthesis and biological evaluation of a novel series of bis-salicylaldehydes as mushroom tyrosinase inhibitors” (Bioorg Med Chem Lett, 2010)
